# Measured values taken from patent US12398111B2, “Triazine compounds and pharmaceutical use thereof” (Japan Tobacco Inc., priority 2014, dated 2025).
# Biological target: T1, human mPGES-1 (Homo sapiens, UniProt O14684)
# T1 construct: made in house; host or cells: FreeStyle CHO-S cells (Chinese hamster ovary), transient transfection with pcDNA3.1(+)/human mPGES-1; microsome fraction used
# T1 sequence (O14684 1-152): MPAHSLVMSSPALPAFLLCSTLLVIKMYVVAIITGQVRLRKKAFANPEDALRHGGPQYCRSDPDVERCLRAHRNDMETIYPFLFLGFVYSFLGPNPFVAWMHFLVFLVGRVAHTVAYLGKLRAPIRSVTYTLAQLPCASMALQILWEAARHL
# Assay: Evaluation of human mPGES-1 enzyme inhibitory activity (PGE2 measured by HTRF, microsome fraction of CHO-S cells expressing human mPGES-1)
# Format: biochemical
# Details: IC50 value; microsome fraction of CHO-S cells expressing human mPGES-1, PGE2 by HTRF
# Protocol: That is, the amount of PGE2 produced by human mPGES-1 in the presence of a test article was measured by the HTRF (homogeneous time resolved fluorescence) method, based on which the human mPGES-1 enzyme inhibitory activity of the test article was determined.
# 1) Preparation of Human mPGES-1 Expressing Cell Microsome Fraction
# A DNA fragment containing human mPGES-1, which is added with a BamHI recognition cleavage sequence immediately before the translation initiation codon and an EcoRI recognition cleavage sequence immediately after the translation termination codon was amplified by the PCR (Polymerase Chain Reaction) method using a human mPGES-1 expression plasmid DNA (pME-18S/iPGES-1) prepared in-house as a template. The purified DNA fragment was digested with BamHI and EcoRI, and ligated to pcDNA3.1(+) (Invitrogen, model number V790-20), similarly digested with BamHI and EcoRI, by using a DNA Ligation kit ver.2.1 (Takara Bio, model number 6022). The human mPGES-1 expression plasmid DNA was isolated from Escherichia coli DH5a (TOYOBO, model number DNA-903) transformed with the obtained ligation product. The base sequence of human mPGES-1 cloned to a vector was determined by the Dye Terminator method by using BigDye Terminator v3.1 Cycle Sequencing Kit (Applied Biosystems, #4337455).
# Human mPGES-1 expression plasmid DNA was transfected into Chinese hamster ovary-derived cells (FreeStyle CHO-S Cell, Invitrogen, #R800-07) by using a transgene reagent (FreeStyle MAX Reagent (Invitrogen, #16447-100)), and cultured with shaking (8% CO2, 37° C.) in a medium containing 8 mmol/L L-glutamine (GIBCO FreeStyle CHO Expression Medium, Invitrogen, #12651-022) for 48 hr.
# The CHO-S cells were suspended in Homogenate Buffer (100 mmol/L potassium phosphate (pH 7.4), 250 mmol/L Sucrose, 100 mmol/L EDTA, complete EDTA free (Roche, #1873580)). Using an ultrasonic disruptor UD-201 (Tomy Seiko), the suspended cells were disrupted at output:3, duty cycle:50 for 30 seconds. The precipitate was removed by centrifugation (1,000×g, 5 min, 4° C.), is and the supernatant was centrifuged (5,000×g, 10 min, 4° C.). The supernatant was further centrifuged (105,000×g, 60 min, 4° C.). The obtained precipitate was suspended in Resuspension Buffer (100 mmol/L potassium phosphate (pH 7.4), 250 mmol/L sucrose, 100 mmol/L EDTA, 10% glycerol) to give a microsome fraction.
# The protein concentration of the microsome fraction was measured by the Bradford method (Protein Assay Kit, Bio-Rad). The microsome fraction was rapidly frozen in liquid nitrogen and preserved at −80° C. Human mPGES-1 in the microsome fraction was detected by Western Blot using rabbit anti-mPGES-1 polyclonal antibody (ThermoFisher Scientific, #PA1-10264).
# 2) Evaluation of Human mPGES-1 Enzyme Inhibitory Activity
# A test article solution diluted with 0.1 mol/L potassium phosphate, pH 7.4 (hereinafter to be referred to as KPB) or DMSO (Nacalai Tesque, #13407-45) was added at 5 μL/well to 96 well V-bottom plate (Corning, #3363). The final DMSO concentration during the reaction was set to 2% (v/v). Furthermore, a microsome fraction of CHO-S cells expressing human mPGES-1, which was diluted with reduced GSH (12.5 mmol/L KPB solution, SIGMA, #G6529-25G) such that the protein concentration was 5 μg/mL, was added at 20 μL/well. The amount of the microsome fraction used is the amount of microsome fraction within a range where the amount of PGE2 produced under the reaction conditions shown below and the amount of microsome fraction used show linearity. To the blank was added reduced GSH (12.5 mmol/L KPB solution) at 20 μL/well.
row,SMILES,IC50 [nM]
1,CC(C)CC(=O)NCc1ccc(Cl)c(-c2nc(O)nc(-c3ccc(C(F)(F)F)cc3)n2)c1 [Example 1-37],0.8
2,CCc1cccc(-c2nc(O)nc(-c3cc(CNC(=O)C(C)(C)C(F)(F)F)ccc3Cl)n2)c1 [Example 1-110],0.9
3,CC(C)(C(=O)NCc1ccc(Cl)c(-c2nc(O)nc(-c3cccc(OCC(F)(F)F)c3)n2)c1)C(F)(F)F [Example 1-99],0.7
4,"COC1CCC2(CC1)CN(Cc1ccc(Cl)c(-c3nc(O)nc(-c4ccccc4)n3)c1)C2=O (single isomer, unassigned) [Example 1-267]",150
5,CC(=O)N(C)Cc1ccc(Cl)c(-c2nc(O)nc(-c3ccc(C(F)(F)F)cc3)n2)c1 [Example 1-21],988
6,CC(C)Oc1cccc(-c2nc(O)nc(-c3cc(CNC(=O)C(C)(C)C(F)(F)F)ccc3Cl)n2)c1 [Example 1-91],0.4
7,CCC(=O)NCc1ccc(Cl)c(-c2nc(O)nc(-c3ccc(C(F)(F)F)cc3)n2)c1 [Example 1-27],1
8,CN(Cc1ccc(Cl)c(-c2nc(O)nc(-c3ccc(OCC(C)(C)C)cc3)n2)c1)C(=O)C(C)(C)C(F)(F)F [Example 1-196],42
9,CO[C@](C)(C(=O)NCc1ccc(Cl)c(-c2nc(O)nc(-c3ccc(C(C)(F)F)cc3)n2)c1)C(F)(F)F [Example 1-138],0.5
10,CO[C@](C)(C(=O)NCc1ccc(Cl)c(-c2nc(O)nc(-c3cccc(OC(F)(F)F)c3)n2)c1)C(F)(F)F [Example 1-103],1.3
11,Cc1ccc(C(F)(F)F)cc1-c1nc(O)nc(-c2ccc(C(F)(F)F)cc2)n1 [Example 1-9],601
12,Cc1ccc(C#Cc2ccc(-c3nc(O)nc(-c4c(OCc5ccccn5)cccc4C(F)(F)F)n3)cc2)cc1 [Example 2-102],5.9
13,Oc1nc(-c2ccc(C#Cc3ccccc3)cc2)nc(-c2c(OCc3ccc(F)cn3)cccc2C(F)(F)F)n1 [Example 2-115],3
14,CC(C)S(=O)(=O)NCc1ccc(Cl)c(-c2nc(O)nc(-c3ccc(C(F)(F)F)cc3)n2)c1 [Example 1-33],0.8
15,Cc1cccc(C)c1-c1nc(O)nc(-c2ccc(OCC(C)(C)C)cc2)n1 [Example 2-58],145
16,CC(C)(C)C#Cc1ccc(-c2nc(O)nc(-c3c(Cl)cccc3OCc3ccccn3)n2)cc1 [Example 2-94],4.1
17,CO[C@](C)(C(=O)NCc1ccc(Cl)c(-c2nc(O)nc(-c3ccccc3)n2)c1)C(F)(F)F [Example 1-87],0.8
18,O=C(NCc1ccc(Cl)c(-c2nc(O)nc(-c3ccc(OCC4CC4)cc3)n2)c1)C1(C(F)(F)F)CC1 [Example 1-163],1
19,CCCc1cccc(-c2nc(O)nc(-c3cc(CNC(=O)C(C)(C)C(F)(F)F)c(C)cc3Cl)n2)c1 [Example 3-16],2.1
20,CCc1ccccc1COc1cccc(Cl)c1-c1nc(O)nc(-c2ccc(C(F)(F)F)cc2)n1 [Example 2-49],14
21,CCc1ccc(C)c(-c2nc(O)nc(-c3ccc(C(F)(F)F)cc3)n2)c1 [Example 1-14],1410
22,CC(C)Cc1cccc(-c2nc(O)nc(-c3cc(CNC(=O)C(C)(C)C(F)(F)F)ccc3Cl)n2)c1 [Example 1-95],2.1
23,CCCc1ccc(-c2nc(O)nc(-c3cc(CNC(=O)C(C)(C)C)ccc3Cl)n2)cc1 [Example 1-44],0.6
24,CO[C@](C)(C(=O)NCc1ccc(Cl)c(-c2nc(O)nc(-c3ccc(C(F)(F)F)c(C)c3)n2)c1)C(F)(F)F [Example 1-148],1.7
25,Cc1cc(-c2nc(O)nc(-c3cc(CNC(=O)C(C)(C)C(F)(F)F)ccc3Cl)n2)ccc1OCC1CC1 [Example 1-175],1.3
26,Cc1cccc(COc2cccc(C(F)(F)F)c2-c2nc(O)nc(-c3ccc(C#Cc4ccccc4F)cc3)n2)n1 [Example 2-107],3.8

row,SMILES,IC50 [nM]
1,CC1(C)CC(C(=O)NCc2ccc(Cl)c(-c3nc(O)nc(-c4ccc(OCC5CC5)cc4)n3)c2)C1 [Example 1-168],2.1
2,CCC(CC)(CO)C(=O)NCc1ccc(Cl)c(-c2nc(O)nc(-c3ccccc3)n2)c1 [Example 1-250],12
3,CN(Cc1ccc(Cl)c(-c2nc(O)nc(-c3ccccc3)n2)c1)C(=O)C1(C(F)(F)F)CCCC1 [Example 1-238],7.4
4,CC1(C(=O)NCc2ccc(Cl)c(-c3nc(O)nc(-c4ccccc4)n3)c2)CCC1 [Example 1-72],1.3
5,Cc1cc(-c2nc(O)nc(-c3cc(CNC(=O)C(C)(C)CC(F)(F)F)ccc3Cl)n2)ccc1F [Example 1-183],1.3
6,Cc1cccc(C)c1-c1nc(O)nc(-c2ccc(C(F)(F)F)cc2)n1 [Example 2-1],283
7,CCCOc1ccc(-c2nc(O)nc(-c3cc(CNC(=O)C4(C(F)(F)F)CC4)ccc3Cl)n2)cc1 [Example 1-154],0.5
8,CC(C)(C(=O)NCc1ccc(Cl)c(-c2nc(O)nc(-c3cccc(C4CCC4)c3)n2)c1)C(F)(F)F [Example 1-100],0.9
9,Oc1nc(-c2ccc(C(F)(F)F)cc2)nc(-c2c(F)cccc2Cl)n1 [Example 2-10],73
10,CCC(CC)C(=O)N(C)Cc1ccc(Cl)c(-c2nc(O)nc(-c3ccccc3)n2)c1 [Example 1-233],848
11,CCc1cc(-c2nc(O)nc(-c3c(C)cccc3C)n2)ccc1Cl [Example 2-54],170
12,Cc1ccc(C#N)c(-c2nc(O)nc(-c3ccc(C#Cc4ccccc4)cc3)n2)c1 [Example 1-174],3.1
13,Cc1cc(C)cc(-c2nc(O)nc(-c3cc(CNC(=O)C(C)(C)C(F)(F)F)ccc3Cl)n2)c1 [Example 1-93],0.7
14,COC(C)(C)C(=O)N(C)Cc1ccc(Cl)c(-c2nc(O)nc(-c3ccccc3)n2)c1 [Example 1-234],1000
15,COc1cccc(Cl)c1-c1nc(O)nc(-c2ccc(C(F)(F)F)cc2)n1 [Example 2-4],66
16,CC(C)(C)COc1ccc(-c2nc(O)nc(-c3cc(CNCC(F)(F)F)ccc3Cl)n2)cc1 [Example 1-212],32
17,COc1ccc(F)c(Cl)c1-c1nc(O)nc(-c2ccc(C(F)(F)F)cc2)n1 [Example 3-11],93
18,CO[C@@](C)(C(=O)NCc1ccc(Cl)c(-c2nc(O)nc(-c3ccccc3)n2)c1)C(F)(F)F [Example 1-89],0.9
19,CC(C)(C(=O)NCc1ccc(Cl)c(-c2nc(O)nc(-c3cccc(C(F)(F)F)c3)n2)c1)C(F)(F)F [Example 1-59],0.6
20,CC(C)(C(=O)NCc1ccc(Cl)c(-c2nc(O)nc(-c3ccc(O)cc3)n2)c1)C(F)(F)F [Example 1-134],4
21,Cc1cccc(COc2cccc(C(F)(F)F)c2-c2nc(O)nc(-c3ccc(C#Cc4cccc(F)c4)cc3)n2)n1 [Example 2-116],5.5
22,CN(Cc1ccc(Cl)c(-c2nc(O)nc(-c3ccccc3)n2)c1)C(=O)C(C)(C)C [Example 1-221],79
23,"CO[C@](C)(C(=O)NC(C)c1ccc(Cl)c(-c2nc(O)nc(-c3ccc(OCC(C)(C)C)cc3)n2)c1)C(F)(F)F (single isomer, unassigned) [Example 1-200]",10
24,CCOC(=O)NCc1ccc(Cl)c(-c2nc(O)nc(-c3ccc(CC(C)C)cc3)n2)c1C [Example 3-15],5.1
25,CCO[C@@](C)(C(=O)NCc1ccc(Cl)c(-c2nc(O)nc(-c3ccccc3)n2)c1)C(F)(F)F [Example 1-97],9.1

# Same assay, conditions: at 30 μM test article
row,SMILES,inhibition at 30 µM [%]
1,Cc1cccc(C)c1-c1nc(O)nc(-c2ccc(O)cc2)n1 [Example 2-6],28
